The results in this text go back to patent US7897774B2, “Cyclic compound having quinolylalkylthio group” (Santen Pharmaceutical Co., Ltd., priority 2005, dated 2011).

For the first test, the system named is VEGF-induced HUVEC proliferation. The test is described as follows: VEGF-induced HUVEC proliferation reaction evaluation system (cell proliferation inhibitory action test, WST-8). It counts as cell-based, human. Particulars: HUVEC 2×10^3 cells per well in 100 μL; 5 μL of 20 μg/mL test compound solution per well; 5 μL of 400 ng/mL VEGF solution; WST-8 three days after VEGF, absorbance at 450 nm; control 1.0% DMSO. The method, then: In order to find the usefulness of the compound of the present invention, a test for inhibitory effects of the compound of the present invention on cell proliferation was carried out using a VEGF-induced HUVEC proliferation reaction evaluation system (HUVEC: human umbilical vein endothelial cells), which is a method of evaluating antiangiogenic effects of drugs, and the antiangiogenic effects of the compound were evaluated.
As one of the widely used methods of evaluating antiangiogenic effects of drugs, a cell proliferation inhibitory action test using a VEGF-induced HUVEC proliferation reaction evaluation system has been reported in Cancer Res., 59, 99-106 (1999). According to the method described in the above-mentioned document, a cell proliferation inhibitory action test of the compounds of the present invention was carried out, and the cell proliferation inhibition rate was calculated. Then, the antiangiogenic effect of each of the compounds of the present invention was evaluated using the obtained rate as an index.
Each test compound was dissolved in dimethyl sulfoxide (hereinafter abbreviated as DMSO), and the obtained solution was diluted with a commercially available phosphate buffer solution (hereinafter abbreviated as PBS), whereby a 20 μg/mL test compound solution was prepared.
HUVEC was suspended in F12K medium containing 0.5% fetal bovine serum (hereinafter abbreviated as FBS), whereby a 2×10^4 cells/mL HUVEC suspension was prepared.
VEGF was dissolved in PBS containing 0.1% bovine serum albumin, and the obtained solution was diluted with F12K medium containing 0.5% FBS, whereby a 400 ng/mL VEGF solution was prepared.
1) The HUVEC suspension was inoculated in an amount of 100 μL into each well of a 96-well plate coated with type I collagen (2×10^3 cells per well).
2) One day after the inoculation, the test compound solution was added in an amount of 5 μL per well.
3) One hour after the addition of the test compound solution, the VEGF solution was added in an amount of 5 μL per well.
4) Three days after the addition of the VEGF solution, WST-8 assay reagent (Dojin Chemical Co., Ltd.) was added in an amount of 10 μL per well.
5) After 3 hours, the above-mentioned plate was attached to an absorptiometer (Multilabel Counter ARVO), and an absorbance at 450 nm of suspension in each well (hereinafter referred to as a test compound suspension) was measured.
6) A test was carried out in the same manner as in the above 1) to 5) except that 1.0% DMSO was used instead of the test compound solution. The result was used as a control.
Incubation was carried out under conditions of 37° C., 5% carbon dioxide and […] in an incubator throughout the above-mentioned test steps.
The cell proliferation inhibition rate (%), which was used as an index of an antiangiogenic effect, was calculated using the following calculation equation.
(Calculation Equation) Cell proliferation inhibition rate (%)=100−{(Absorbance of test compound suspension−A)/(absorbance of control−A)}×100 A: Absorbance of only cell suspension (cells+medium) (Test Results and Discussion)
(Tetrazolium assays rely on reduction of a dye to a coloured formazan, in cell work by metabolically active cells.)
With `Cc1cc(C)cc(NC(=O)c2cccnc2SCc2cc[n+]([O-])c3ccccc23)c1` [Compound 1-35, N-(3,5-Dimethylphenyl)-2-(1-oxoquinolin-4-ylmethylthio)pyridine-3-carboxamide], the “Cell proliferation inhibition rate (%)” value worked out at 100%.

The same test, now with this note: Homo sapiens, 72 h; HUVEC 2×10^3 cells per well in 100 μL; 5 μL of 20 μg/mL test compound solution per well; 5 μL of 400 ng/mL VEGF solution; WST-8 three days after VEGF, absorbance at 450 nm; control 1.0% DMSO; read-out: Cell proliferation inhibition rate (%).
For `O=C(Nc1ccc(Cl)cc1)c1cccnc1SCc1ccnc2ccccc12` [Compound 1-1, N-(4-Chlorophenyl)-2-(quinolin-4-ylmethylthio)pyridine-3-carboxamide], the inhibition at 20 µg/mL (stock) amounted to 100%. On the same count and under the same terms, in the case of `Cc1cc(C)cc(NC(=O)c2cccnc2SCc2ccnc3ccccc23)c1` [Compound 1-3, N-(3,5-Dimethylphenyl)-2-(quinolin-4-ylmethylthio)pyridine-3-carboxamide] it was 100%; in that of `COc1ccc(CCNC(=O)c2ccccc2SCc2ccnc3ccccc23)cc1` [Compound 1-26, N-[2-(4-Methoxyphenyl)ethyl]-2-(quinolin-4-ylmethylthio)benzamide], 97%; in that of `COc1cc2nccc(CSc3ncccc3C(=O)Nc3cc(C)cc(C)c3)c2cc1OC` [Compound 1-30, 2-(6,7-Dimethoxyquinolin-4-ylmethylthio)-N-(3,5-dimethylphenyl)pyridine-3-carboxamide], 70%. Take `COc1cc2nccc(CSc3ncccc3C(=O)Nc3cccc(Cl)c3)c2cc1OC` [Compound 1-31, N-(3-Chlorophenyl)-2-(6,7-dimethoxyquinolin-4-ylmethylthio)pyridine-3-carboxamide]: the inhibition at 20 µg/mL (stock) was 88%. Consider `Cc1cccc(NC(=O)c2cccnc2SCc2ccnc3cc(Cl)c(Cl)cc23)c1` [Compound 1-33, 2-(6,7-Dichloroquinolin-4-ylmethylthio)-N-(3-methylphenyl)pyridine-3-carboxamide], for which the inhibition at 20 µg/mL (stock) worked out at 100%. As for `Cc1cc(C)cc(NC(=O)c2cccnc2SCc2ccc3ncccc3c2)c1` [Compound 1-36, N-(3,5-Dimethylphenyl)-2-(quinolin-6-ylmethylthio)pyridine-3-carboxamide], the inhibition at 20 µg/mL (stock) is 100%. `O=C(Nc1cccc(Cl)c1)c1cccnc1SCc1ccc2ncccc2c1` [Compound 1-38, N-(3-Chlorophenyl)-2-(quinolin-6-ylmethylthio)pyridine-3-carboxamide]: the inhibition at 20 µg/mL (stock) was found to be 100%.

For the molecule `Cc1cc(C)cc(NC(=O)c2cccnc2SCc2cnc3ccccc3c2)c1` [Compound 1-39, N-(3,5-Dimethylphenyl)-2-(quinolin-3-ylmethylthio)pyridine-3-carboxamide], the inhibition at 20 µg/mL (stock) amounted to 100%. Consider `O=C(Nc1ccc(OC(F)(F)F)cc1)c1cccnc1SCc1ccnc2ccccc12` [Compound 2-1, 2-(Quinolin-4-ylmethylthio)-N-(4-trifluoromethoxyphenyl)pyridine-3-carboxamide], for which the inhibition at 20 µg/mL (stock) is 100%.

Turning to `Cc1cc(C)cc(NC(=O)c2ccccc2SCc2ccnc3ccccc23)c1` [Compound 2-2, N-(3,5-Dimethylphenyl)-2-(quinolin-4-ylmethylthio)benzamide], the inhibition at 20 µg/mL (stock) is 100%.

Take `O=C(Nc1ccc(Cl)cc1)c1ccccc1SCc1ccnc2ccccc12` [Compound 2-3, N-(4-Chlorophenyl)-2-(quinolin-4-ylmethylthio)benzamide]: the inhibition at 20 µg/mL (stock) worked out at 100%. Still for that read-out and setting: in the case of `Cc1cc(C)cc(NC(=O)c2sccc2SCc2ccnc3ccccc23)c1` [Compound 2-8, N-(3,5-Dimethylphenyl)-3-(quinolin-4-ylmethylthio)thiophene-2-carboxamide] it was 100%.
